Assay results as given in ChEMBL document CHEMBL2074220, “Interaction of human organic anion transporters with various cephalosporin antibiotics” (Eur J Pharmacol, 2002).

How the values were obtained:
[1] = biological target: T1, Organic anion transporter 3 (Homo sapiens, UniProt Q8TCC7); assay: TP_TRANSPORTER: inhibition of Estrone sulfate uptake in OAT3-expressing S2 cells; assay type: functional, cell-based
T1 sequence (Q8TCC7 whole entry): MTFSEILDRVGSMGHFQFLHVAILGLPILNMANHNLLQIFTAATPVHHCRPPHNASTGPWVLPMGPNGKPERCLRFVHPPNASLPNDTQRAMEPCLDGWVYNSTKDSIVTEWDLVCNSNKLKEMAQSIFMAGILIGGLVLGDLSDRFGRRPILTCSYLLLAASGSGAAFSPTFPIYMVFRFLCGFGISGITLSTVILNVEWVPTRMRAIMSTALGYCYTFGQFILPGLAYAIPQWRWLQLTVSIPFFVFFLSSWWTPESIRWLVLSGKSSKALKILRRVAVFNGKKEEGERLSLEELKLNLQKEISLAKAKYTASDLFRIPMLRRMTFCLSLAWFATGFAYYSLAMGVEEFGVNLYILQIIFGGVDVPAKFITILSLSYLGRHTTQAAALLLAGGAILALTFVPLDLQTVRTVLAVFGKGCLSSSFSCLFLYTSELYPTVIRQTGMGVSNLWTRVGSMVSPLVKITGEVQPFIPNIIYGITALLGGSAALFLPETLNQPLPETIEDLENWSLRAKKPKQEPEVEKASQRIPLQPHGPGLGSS

[2] = biological target: T2, Solute carrier family 22 member 11 (Homo sapiens, UniProt Q9NSA0); assay: TP_TRANSPORTER: inhibition of Estrone sulfate uptake in OAT4-expressing S2 cells; assay type: functional, cell-based
T2 sequence (Q9NSA0 whole entry): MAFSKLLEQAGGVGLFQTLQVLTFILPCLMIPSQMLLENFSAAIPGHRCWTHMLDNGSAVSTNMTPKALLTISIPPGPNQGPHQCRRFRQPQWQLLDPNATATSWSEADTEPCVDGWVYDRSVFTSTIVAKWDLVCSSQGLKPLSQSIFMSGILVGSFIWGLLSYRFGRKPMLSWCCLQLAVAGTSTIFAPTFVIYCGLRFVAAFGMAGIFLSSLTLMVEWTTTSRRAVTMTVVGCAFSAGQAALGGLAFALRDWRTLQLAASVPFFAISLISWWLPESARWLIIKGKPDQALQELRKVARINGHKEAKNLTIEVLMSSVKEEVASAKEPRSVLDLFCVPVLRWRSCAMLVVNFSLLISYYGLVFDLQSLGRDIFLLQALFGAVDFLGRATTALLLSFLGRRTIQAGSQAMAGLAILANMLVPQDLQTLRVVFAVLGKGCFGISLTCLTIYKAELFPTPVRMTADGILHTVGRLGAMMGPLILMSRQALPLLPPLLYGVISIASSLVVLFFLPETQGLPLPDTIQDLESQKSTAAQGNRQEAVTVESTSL

With `Cn1nnnc1SCC1=C(C(=O)O)N2C(=O)[C@@H](NC(=O)[C@H](O)c3ccccc3)[C@H]2SC1` [CEFAMANDOLE] as the compound, how does the Ki [1] read?
The Ki was 46 µM.

Which Ki [1] does the source give for `Cc1nnc(SCC2=C(C(=O)O)N3C(=O)[C@@H](NC(=O)Cn4cnnn4)[C@H]3SC2)s1` [CEFAZOLIN] here?
Its Ki is 550 µM.

Which Ki [1] does the source give for `CO/N=C(\C(=O)N[C@@H]1C(=O)N2C(C(=O)O)=C(COC(C)=O)CS[C@H]12)c1csc(N)n1` [CEFOTAXIME] here?
The Ki was 290 µM.

With `CC(=O)OCC1=C(C(=O)O)N2C(=O)[C@@H](NC(=O)Cc3cccs3)[C@H]2SC1` [CEPHALOTHIN] as the compound, how does the Ki [1] read?
Its Ki is 40 µM.

And the Ki [2]?
The Ki was 200 µM.
